Like-named read-outs stand apart in the source and are kept apart here.
Legend:
[1] = system: Arabidopsis seedlings; test: Primary root growth of ABACUS1 plant lines on ABA plates; type: in vivo
Description: (§1) For ABA treatments, 20 mM (±)-ABA was prepared freshly as a stock solution in 50 mM NaOH. Mock treatment plates were made using NaOH to keep pH consistent. Root tips were marked at the time of transfer and images were acquired after 4 days growth on vertical treatment plates. Root growth after transfer were measured using FIJI (http://fiji.sc/). Each experiment included ∼15 roots per genotype and was repeated three independent times with similar results. ABA sensitivity of seed germination rate of Arabidopsis seeds was assayed after sowing on ½ × MS agar medium plates supplemented with 0, 2 or 20 µM (±)-ABA. […] Plates were stratified for 2 days at +4°C after which they were transferred to a growth chamber with standard long day conditions (16 hr high light, 22°C, 70% RH). Seeds were considered germinated at radicle emergence and germination rate was assayed 9 days post sowing in three independent experiments of 100–200 seeds per genotype. The abi1-2, hab1-1, pp2ca-1 triple mutant line was a gift from Pedro Rodriguez ([Rubio et al., 2009]).

[2] = system: Arabidopsis seeds; test: Seed germination on ABA plates; type: in vivo; details: all genotypes; plates with 20 µM (±)-ABA
Description: as §1

[3] = system: Arabidopsis roots; test: ABACUS1 responses in roots perfused with ABA in the RootChip16; type: in vivo
Description: The RootChip16 device was used as described in detail previously for the RootChip ([Grossmann et al., 2011], [2012]). Briefly, the device was sterilized by UV light exposure, immersed in liquid growth media (¼ × MS salts, 1.28 mM MES pH 5.7 supplemented with B vitamins at final concentrations of niacin 2.3 µM, thiamine 1.5 µM, pyridoxin 1.2 µM and myo-inositol 0.3 µM), and air in the root observation chambers was removed by applying suction at the solution outlets using a microliter pipette. 5-day old Arabidopsis seedlings, germinated on 5 mm long cut 10 µl pipette tips filled with solidified growth medium (½ × MS salts, 1% Agar, 2.56 mM MES pH 5.7 supplemented with B vitamins at final concentrations of niacin 4.6 µM, thiamine 3.0 µM, pyridoxin 2.4 µM and myo-inositol 0.6 µM, were transferred onto the chip by plugging the tips into the root inlets. The chip was incubated for 24 hr under standard long-day growth conditions (16 hr high light, 22°C, 70% RH) to allow roots to grow into the observation chambers. Before imaging, the RootChip16 was inserted from below into the central aperture of the carrier and fixed with tape. Pressure lines for control over micromechanical valves and flow lines for perfusion of solutions were connected. To actuate the push-up valves on the chip, a closing pressure of 15 p.s.i (1.03 bar) was applied to the water filled control lines. […]

[4] = set-up: method as in Kaiser and Hartung, 1981; details: ref Kaiser and Hartung, 1981; cited from earlier work
[5] = system: Arabidopsis roots; set-up: method as in Grossmann et al., 2011; details: ref Grossmann et al., 2011; cited from earlier work
[6] = system: ABACUS1-2µ; type: biochemical, Arabidopsis; details: Figure 3B-E

SMILES: CC1=CC(=O)CC(C)(C)C1(O)/C=C/C(C)=C\C(=O)O (racemic) [(±)-ABA]
- root growth of ABACUS1-2µ sensor lines ([1]; 20 µM exogenous (±)-ABA): almost completely inhibited
- root growth of ABACUS1-80µ plants ([1]; 100 µM exogenous (±)-ABA): strongly inhibited
- germination [2]: 0%

SMILES: CC1=CC(=O)CC(C)(C)[C@@]1(O)/C=C/C(C)=C\C(=O)O [ABA, abscisic acid]
- accumulation rate of a non-pre-exposed root relative to a root pre-exposed to ABA ([3]; first ABA pulse, 5 µM (±)-ABA, ABACUS1-2µ roots): nearly twice
- time to saturation of sensor responses ([3]; typical experiment, roots): ~15 min
- pKa [4]: 4.7

SMILES: OC[C@H]1OC(O)[C@H](O)[C@@H](O)[C@@H]1O (stereo partly drawn) [Glucose, glucose]
- time to saturation of sensor responses [5]: less than 1 min

SMILES: O=S(=O)(NCc1ccccn1)c1ccc(Br)c2ccccc12 [Pyrabactin, pyrabactin]
- increase in energy transfer of ABACUS1 (positive ratio change), in words [6]: induced

SMILES: O=c1[nH]c(=O)c2nc[nH]c2[nH]1 [Xanthine, xanthine]
- increase in energy transfer of ABACUS1 (positive ratio change), in words [6]: did not occur

— paper PMC3985517, “Abscisic acid dynamics in roots detected with genetically encoded FRET sensors” (eLife, 2014)
